In brackets after ≈: the same amount, converted by molar mass.
Columns and labels:
Y. pestis [1] = conditions: cited from earlier work
B. mallei [2] = conditions: cited from earlier work
B. pseudomallei = conditions: cited from earlier work
B. anthracis [3] = conditions: cited from earlier work
Y. pestis [4] = assay: microbe, parasite or virus in culture; type: cell-based; conditions: Yersinia pestis
B. anthracis [5] = assay: microbe, parasite or virus in culture; type: cell-based; conditions: Bacillus anthracis
Y. pestis (C092) = system: Y. pestis (C092); parameters: species or system BALB/c mice; conditions: mouse, in vivo, ip
Legionella pneumophila = assay: microbe, parasite or virus in culture; type: cell-based
B. mallei [6] = assay: microbe, parasite or virus in culture; type: cell-based; conditions: Burkholderia mallei
B. anthracis AMES strain = system: B. anthracis AMES strain; parameters: species or system BALB/c mice; conditions: mouse, in vivo, ip

| SMILES | MIC90 (Y. pestis [1]) [µg/mL] | MIC range (Y. pestis [1]) [µg/mL] | MIC50 (B. mallei [2]) [µg/mL] | MIC90 (B. mallei [2]) [µg/mL] | MIC range (B. mallei [2]) [µg/mL] | MIC50 (B. pseudomallei) [µg/mL] | MIC90 (B. pseudomallei) [µg/mL] | MIC range (B. pseudomallei) [µg/mL] | MIC50 (B. anthracis [3]) [µg/mL] | MIC90 (B. anthracis [3]) [µg/mL] | MIC range (B. anthracis [3]) | MIC (Y. pestis [4]) [µg/mL] | MIC (B. anthracis [5]) [µg/mL] | PD50 (Y. pestis (C092)) | MIC50 (Legionella pneumophila) [µg/mL] | MIC90 (Legionella pneumophila) [µg/mL] | MIC (B. mallei [6]) [µg/mL] | PD50 (B. anthracis AMES strain) |
| --- | --- | --- | --- | --- | --- | --- | --- | --- | --- | --- | --- | --- | --- | --- | --- | --- | --- | --- |
| O=C(O)c1cn(C2CC2)c2cc(N3CCNCC3)c(F)cc2c1=O [Ciprofloxacin] | 0.03125 (≈ 0.0943 µM) | 0.0039 to 0.0625 | 0.5 (≈ 1.51 µM) | 1 (≈ 3.02 µM) | 0.0625 to 1 | 2 (≈ 6.04 µM) | 4 (≈ 12.1 µM) | 0.5 to 32 | 0.0625 (≈ 0.189 µM) | 0.125 (≈ 0.377 µM) | 0.03125 to .25 µg/mL | – | – | – | – | – | – | – |
| C[C@H]1c2cccc(O)c2C(=O)C2=C(O)[C@]3(O)C(=O)C(C(N)=O)=C(O)[C@@H](N(C)C)[C@@H]3[C@@H](O)[C@@H]21 [Doxycycline, reference compound] | – | – | – | – | – | – | – | – | – | – | – | 0.5 (≈ 1.13 µM) | 0.03 (≈ 0.0675 µM) | 29.7 (range of 20.7 to 38.8) mg/kg | 1 (≈ 2.25 µM) | 1 (≈ 2.25 µM) | 0.06 (≈ 0.135 µM) | 2.0 (range of 1.4 to 2.6) mg/kg |
